# From patent US20230348424A1, “HETEROCYCLIC COMPOUNDS AND METHODS OF USE” (Schrödinger, Inc., priority 2022, published 2023)
# pIC50: −log10 of the molar value.
# Molecular target: SOS1:KRAS (G12C) interaction (Homo sapiens (Human), UniProt Q07889)
# Assay: SOS1 KRas(G12C) FRET Assay
# Assay type: binding
# Conditions: 0.5 nM His10-SOS1 (res. 564-1049), 2.5 nM GST-KRAS G12C (res. 1-169), 2 hrs at RT
# Method in brief: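 GST-KRAS G12C (res. 1-169) at 2.5 nM and His10-SOS1 (res. 564-1049) at 0.5 nM, final, in PBS with 0.1% BSA, 5 mM MgCl2, 100 mM KF, 5 mM DTT and 0.5% DMSO. After 2 h at RT, FRET read at 665/615 nm and normalized to DMSO and no-SOS1 controls. IC50 by non-linear regression.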
# Chain of SOS1:KRAS (G12C) interaction (Q07889 564-1049, stated change not applied): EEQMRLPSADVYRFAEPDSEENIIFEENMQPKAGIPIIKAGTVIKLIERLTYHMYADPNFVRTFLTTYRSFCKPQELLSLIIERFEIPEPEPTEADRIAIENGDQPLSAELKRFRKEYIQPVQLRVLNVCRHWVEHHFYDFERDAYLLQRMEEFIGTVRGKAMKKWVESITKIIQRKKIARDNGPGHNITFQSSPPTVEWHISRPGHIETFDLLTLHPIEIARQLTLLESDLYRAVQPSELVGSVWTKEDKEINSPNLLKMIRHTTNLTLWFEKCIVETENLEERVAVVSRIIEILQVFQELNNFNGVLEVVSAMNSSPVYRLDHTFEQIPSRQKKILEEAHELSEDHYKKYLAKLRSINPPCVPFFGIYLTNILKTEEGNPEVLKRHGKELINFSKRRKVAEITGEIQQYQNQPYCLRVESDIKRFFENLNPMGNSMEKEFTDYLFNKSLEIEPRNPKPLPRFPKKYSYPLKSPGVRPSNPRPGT
row,SMILES,pIC50
1,"C[C@@H](NC(=O)c1cn([C@H]2CCC2(F)F)c(=O)cc1N[C@@H]1[C@@H]2CC[C@H]1CN(C)C2)c1cccc(C(F)F)c1F [Example 211, 1-((S)-2,2-difluorocyclobutyl)-N-((R)-1-(3-(difluoromethyl)-2-fluorophenyl)ethyl)-4-(((1R,5S,8s)-3-methyl-3-azabicyclo[3.2.1]octan-8-yl)amino)-6-oxo-1,6-dihydropyridine-3-carboxamide]",7.53
2,"C[C@@H](NC(=O)c1cn(C2(C(F)F)CC2)c(=O)cc1N[C@@H]1CN2CCC1(F)CC2)c1cccc(C(F)F)c1F [Example 187, N-((R)-1-(3-(difluoromethyl)-2-fluorophenyl)ethyl)-1-(1-(difluoromethyl)cyclopropyl)-4-(((R)-4-fluoroquinuclidin-3-yl)amino)-6-oxo-1,6-dihydropyridine-3-carboxamide]",7.65
3,"Cc1c([C@@H](C)NC(=O)c2cn(C3CCOCC3)c(=O)cc2N[C@H]2[C@@H]3C[C@H]2CN(C)C3)cccc1C(F)(F)F (single isomer, unassigned) [Example 23]",7.33
4,"Cc1c([C@@H](C)NC(=O)c2cn(C3CCOCC3)c(=O)cc2NC2CCNC2)cccc1C(F)(F)F (stereo partly drawn) [Example 44, N-((R)-1-(2-methyl-3-(trifluoromethyl)phenyl)ethyl)-6-oxo-4-(pyrrolidin-3-ylamino)-1-(tetrahydro-2H-pyran-4-yl)-1,6-dihydropyridine-3-carboxamide]",7.46
5,"C[C@@H](NC(=O)c1cn(C2(C(F)F)CC2)c(=O)cc1N[C@H]1[C@@H]2CN(C)C[C@@H]21)c1cccc(C(F)(F)c2ccncc2)c1F [Example 174, N-((R)-1-(3-(difluoro(pyridin-4-yl)methyl)-2-fluorophenyl)ethyl)-1-(1-(difluoromethyl)cyclopropyl)-4-(((1R,5S,6s)-3-methyl-3-azabicyclo[3.1.0]hexan-6-yl)amino)-6-oxo-1,6-dihydropyridine-3-carboxamide]",5.93
6,"C[C@@H](NC(=O)c1cn([C@H]2[C@H](C)C2(F)F)c(=O)cc1N[C@H]1[C@@H]2CN(C)C[C@@H]21)c1cccc(C(C)(F)F)c1F (single isomer, unassigned) [Example 196]",7.36
7,"COc1ccc(C(C)NC(=O)c2cn(C3(C(F)F)CC3)c(=O)cc2NC2CCN(C)CC2)cc1C(F)(F)F (stereo not shown) [Example 173, 1-(1-(difluoromethyl)cyclopropyl)-N-(1-(4-methoxy-3-(trifluoromethyl)phenyl)ethyl)-4-((1-methylpiperidin-4-yl)amino)-6-oxo-1,6-dihydropyridine-3-carboxamide]",5.93
8,"C[C@@H](NC(=O)c1cn(C2(C(F)F)CC2)c(=O)cc1NCC1(F)CN(C)C1)c1cccc(C(F)F)c1F [Example 185, (R)-N-(1-(3-(difluoromethyl)-2-fluorophenyl)ethyl)-1-(1-(difluoromethyl)cyclopropyl)-4-(((3-fluoro-1-methylazetidin-3-yl)methyl)amino)-6-oxo-1,6-dihydropyridine-3-carboxamide]",7.51
9,"C[C@@H](NC(=O)c1cn(C23CC(C2)C3)c(=O)cc1N[C@@H]1[C@@H]2C[C@H]1CN(C)C2)c1cccc(C(F)F)c1F [Example 208, 1-(bicyclo[1.1.1]pentan-1-yl)-N-((R)-1-(3-(difluoromethyl)-2-fluorophenyl)ethyl)-4-(((1R,5S,6s)-3-methyl-3-azabicyclo[3.1.1]heptan-6-yl)amino)-6-oxo-1,6-dihydropyridine-3-carboxamide]",7.89
10,"Cc1c([C@@H](C)NC(=O)c2cn(C3CCOCC3)c(=O)cc2SC2CCNCC2)cccc1C(F)(F)F [Example 157, (R)-N-(1-(2-methyl-3-(trifluoromethyl)phenyl)ethyl)-6-oxo-4-(piperidin-4-ylthio)-1-(tetrahydro-2H-pyran-4-yl)-1,6-dihydropyridine-3-carboxamide]",6.66
11,"C[C@@H](NC(=O)c1cn(C2(C(F)(F)F)CC2)c(=O)cc1NC1CCN(C)CC1)c1cccc(C(F)F)c1F [Example 75, (R)-N-(1-(3-(difluoromethyl)-2-fluorophenyl)ethyl)-4-((1-methylpiperidin-4-yl)amino)-6-oxo-1-(1-(trifluoromethyl)cyclopropyl)-1,6-dihydropyridine-3-carboxamide]",7.81
12,"C[C@@H](NC(=O)c1cn(C2(C(F)F)CC2)c(=O)cc1NC1CCN(C)CC1)c1cccc2c(F)coc12 [Example 54, (R)-1-(1-(difluoromethyl)cyclopropyl)-N-(1-(3-fluorobenzofuran-7-yl)ethyl)-4-((1-methylpiperidin-4-yl)amino)-6-oxo-1,6-dihydropyridine-3-carboxamide]",7.58
13,"Cc1c([C@@H](C)NC(=O)c2cn(C3CCOCC3)c(=O)c(Br)c2NC2CCN(C)CC2)cccc1C(F)(F)F [Example 17, (R)-5-bromo-N-(1-(2-methyl-3-(trifluoromethyl)phenyl)ethyl)-4-((1-methylpiperidin-4-yl)amino)-6-oxo-1-(tetrahydro-2H-pyran-4-yl)-1,6-dihydropyridine-3-carboxamide]",6.14

# The next lines start with the values.
row,pIC50,SMILES
1,7.64,"Cc1c([C@@H](C)NC(=O)c2cn(C3CCOCC3)c(=O)cc2NC2CCN(C3CC3)CC2)cccc1C(F)(F)F [Example 284, (R)-4-((1-cyclopropylpiperidin-4-yl)amino)-N-(1-(2-methyl-3-(trifluoromethyl)phenyl)ethyl)-6-oxo-1-(tetrahydro-2H-pyran-4-yl)-1,6-dihydropyridine-3-carboxamide]"
2,8.13,"C[C@@H](NC(=O)c1cn(C23CC(C2)C3)c(=O)cc1NC1CCN(C)CC1)c1cccc(C(F)F)c1F [Example 217, (R)-1-(bicyclo[1.1.1]pentan-1-yl)-N-(1-(3-(difluoromethyl)-2-fluorophenyl)ethyl)-4-((1-methylpiperidin-4-yl)amino)-6-oxo-1,6-dihydropyridine-3-carboxamide]"
3,7.57,"C[C@@H](NC(=O)c1cn(C23COC(C)(C2)C3)c(=O)cc1NC1CCN(C)CC1)c1cccc(C(F)F)c1F [Example 220, (R)-N-(1-(3-(difluoromethyl)-2-fluorophenyl)ethyl)-1-(1-methyl-2-oxabicyclo[2.1. 1]hexan-4-yl)-4-((1-methylpiperidin-4-yl)amino)-6-oxo-1,6-dihydropyridine-3-carboxamide]"
4,7.06,"Cc1c([C@@H](C)NC(=O)c2cn(C3CCOCC3)c(=O)cc2N[C@H]2CC[C@]23CCCN(C)C3)cccc1C(F)(F)F (single isomer, unassigned) [Example 298]"
5,7.88,"C[C@@H](NC(=O)c1cn([C@]23COC[C@H]2C3)c(=O)cc1N[C@H]1[C@@H]2CN(C)C[C@@H]21)c1cccc(C(C)(F)F)c1F [Example 289, 1-((1S,5S)-3-oxabicyclo[3.1.0]hexan-1-yl)-N-((R)-1-(3-(1,1-difluoroethyl)-2-fluorophenyl)ethyl)-4-(((1R,5S,6s)-3-methyl-3-azabicyclo[3.1.0]hexan-6-yl)amino)-6-oxo-1,6-dihydropyridine-3-carboxamide]"
6,8.76,"C[C@@H](NC(=O)c1cn(C2(C)CN(C(=O)C3CC3)C2)c(=O)cc1N[C@H]1[C@@H]2CN(C)C[C@@H]21)c1cccc(C(F)F)c1F [Example 270, 1-(1-(cyclopropanecarbonyl)-3-methylazetidin-3-yl)-N-((R)-1-(3-(difluoromethyl)-2-fluorophenyl)ethyl)-4-(((1R,5S,6s)-3-methyl-3-azabicyclo[3.1.0]hexan-6-yl)amino)-6-oxo-1,6-dihydropyridine-3-carboxamide]"
7,7.48,"C[C@@H](NC(=O)c1cn([C@@]2(C)CCN(C(=O)C3(F)CC3)C2)c(=O)cc1NC1CCN(C)CC1)c1cccc(C(F)F)c1F [Example 268, N-((R)-1-(3-(difluoromethyl)-2-fluorophenyl)ethyl)-1x-((S)-1-(1-fluorocyclopropane-1-carbonyl)-3-methylpyrrolidin-3-yl)-4-((1-methylpiperidin-4-yl)amino)-6-oxo-1,6-dihydropyridine-3-carboxamide]"
8,7.33,"C[C@@H](NC(=O)c1cn(C2(C)CC(F)(F)C2)c(=O)cc1N[C@H]1[C@@H]2CN(C)C[C@@H]21)c1cccc(C(F)F)c1F [Example 224, 1-(3,3-difluoro-1-methylcyclobutyl)-N-((R)-1-(3-(difluoromethyl)-2-fluorophenyl)ethyl)-4-(((1R,5S,6s)-3-methyl-3-azabicyclo[3.1.0]hexan-6-yl)amino)-6-oxo-1,6-dihydropyridine-3-carboxamide]"
9,8.31,"C[C@@H](NC(=O)c1cn([C@@H]2CCOC(C)(C)C2)c(=O)cc1NC1CCN(C)CC1)c1cccc(C(F)F)c1F (single isomer, unassigned) [Example 307]"
10,7.43,"C[C@@H](NC(=O)c1cn(C2(C(F)F)CC2)c(=O)cc1N[C@H]1[C@@H]2CNC[C@@H]21)c1cccc(C(F)F)c1F [Example 279, 4-(((1R,5S,6s)-3-azabicyclo[3.1.0]hexan-6-yl)amino)-N-((R)-1-(3-(difluoromethyl)-2-fluorophenyl)ethyl)-1-(1-(difluoromethyl)cyclopropyl)-6-oxo-1,6-dihydropyridine-3-carboxamide]"
11,7.53,"C[C@@H](NC(=O)c1cn(C2(C(F)F)CC2)c(=O)cc1N[C@@H]1C[C@@H]2C[C@H]1CN2C)c1cccc(C(F)F)c1F (single isomer, unassigned) [Example 238]"
12,7.54,"C[C@@H](NC(=O)c1cn(C2(C3CCC3)CC2)c(=O)cc1NC1CCN(C)CC1)c1cccc(C(F)F)c1F [Example 241, (R)-1-(1-cyclobutylcyclopropyl)-N-(1-(3-(difluoromethyl)-2-fluorophenyl)ethyl)-4-((1-methylpiperidin-4-yl)amino)-6-oxo-1,6-dihydropyridine-3-carboxamide]"
